Values quoted from earlier work in patent publication US20070032466A1, “Drug containing chymase inhibitor as the active ingredient” (TEIJIN PHARMA LIMITED, priority 2003, published 2007).

Columns and labels:
[1] = system: hamster model of myocardial infarction; conditions: administrated alone
[2] = system: canine model of myocardial infarction; conditions: oral administration
[3] = system: mouse allergy model; conditions: oral administration
[4] = system: new onset of diabetes; conditions: large scale clinical tests (CARPPP, HOPE, LIFE studies)

| Compound | suppression of new onset of diabetes [4] | further results |
| --- | --- | --- |
| CCOc1ccccc1CC1C(=O)N(C(=O)NC(c2ccc(C)cc2)c2ccc(C)cc2)C1C(=O)c1ccc(C(=O)O)cc1 (stereo not drawn) [4-[1-{[bis(4-methylphenyl)methyl]carbamoyl}-3-(2-ethoxybenzyl)-4-oxoazetizin-2-yloyl]benzoic acid] |  | effect on a hamster model of myocardial infarction [1]: has an effect |
| O=CNc1cnc(-c2ccccc2)n(CC(=O)NC(Cc2ccccc2)C(=O)C(=O)CCCOc2ccccn2)c1=O (stereo not drawn) [III-I] |  | effectiveness in a canine model of myocardial infarction [2]: effective |
| COC(=O)c1ccc2oc(C(=O)C(Cc3ccccc3)NC(=O)Cn3c(-c4ccccc4OC)ncc(N)c3=O)nc2c1 (stereo not drawn) [IV-I] |  | activity as a chymase inhibitor in a mouse allergy model [3]: exhibit activity as a chymase inhibitor |
| C[C@H](CS)C(=O)N1CCC[C@H]1C(=O)O [captopril] | suppress new onset of diabetes |  |
| CCCCc1nc(Cl)c(CO)n1Cc1ccc(-c2ccccc2-c2nn[nH]n2)cc1 [losartan] | suppress new onset of diabetes |  |
| CCOC(=O)[C@H](CCc1ccccc1)N[C@@H](C)C(=O)N1[C@H](C(=O)O)C[C@@H]2CCC[C@@H]21 [ramipril] | suppress new onset of diabetes |  |
